From patent publication US20130171091A1, “Nanocell Drug Delivery System” (Massachusetts Institute of Technology, priority 2004, published 2013) come the findings set out here.

Type in all cases: cell-based
Assay [1] relates to B16/F10 melanoma cells and human umbilical vein endothelial cells. Kind of assay: HGF/SF-induced response in co-culture assay on matrigel. The text has this: (§1) Protocol: For setting up the system, human umbilical vein endothelial cells, pooled from three donors, were purchased from Cambrex, and used between passages 3-6. […] For the tumor component, we used B16/F10 melanoma cells as the model cell line, which were stably transfected to express green fluorescent protein. Plasmid expressing enhanced green fluorescent protein (pEGFP-C2, Clontech) was linearized and lipofected (Lipofectamine 2000, Invitrogen) into B16-F10 cells. […] The GFP-B16/F10 cells were regularly cultured in DMEM supplemented with 5% FBS. Sterile glass coverslips (Corning) were coated with matrigel (extracellular matrix extracted from murine Englebreth-Holms sarcoma, diluted 1:3 in phosphate buffer saline; Becton Dickinson) or collagen (type I from rat's tail, Becton Dickinson). Synchronized human umbilical vein endothelial cells were trypsinised and plated on the coverslips at a density of 2×10^4 cells per well. The cells were allowed to adhere for 24 hours in endothelial basal media supplemented with 20% fetal bovine serum. At this time point, the media was replaced with EBM supplemented with 1% serum, and green fluorescent protein-expressing B16/F10 cells were added to the system at a density of 5×10^3 cells per well. The co-culture was allowed to incubate overnight, following which different treatments were added to the media. At 24 hours post-treatment, the cells were fixed in paraformaldehyde (4% on ice, for 20 min), and stained with propidium iodide. The coverslips were mounted with antifade, and analysed with a LSM510 Zeiss confocal microscope. […] Data were expressed as the ratio of each component to the total area covered by cells.

Assay [2] has the same test system. Put plainly: VEGF-induced response in co-culture assay plated on collagen.
Text: as §1, with “At this time point, the media was replaced with EBM supplemented with 1% serum, and green fluorescent protein-expressing B16/F10 cells were added to the system at a density of 5×10^3 cells per well. The co-culture was allowed to incubate overnight, following which different treatments were added to the media. At 24 hours post-treatment, the cells were fixed in paraformaldehyde (4% on ice, for 20 min), and stained with propidium iodide.” left out

Assay [3] has the same test system. Put plainly: HGF-induced response in co-culture assay plated on collagen.
Text: as §1, with “At this time point, the media was replaced with EBM supplemented with 1% serum, and green fluorescent protein-expressing B16/F10 cells were added to the system at a density of 5×10^3 cells per well. The co-culture was allowed to incubate overnight, following which different treatments were added to the media. At 24 hours post-treatment, the cells were fixed in paraformaldehyde (4% on ice, for 20 min), and stained with propidium iodide.” left out

Assay [4] shares this test system. Put plainly: VEGF-induced response in co-culture assay on matrigel. Further details: VEGF-induced endothelial network: dose or concentration left out as unconfirmed. The following applies: for effect on tumor cells: Doxorubicin 10-50 μM.
Text: as §1

Assay [5] shares this test system. Put plainly: Effect of VEGF and HGF on tumor angiogenesis in vitro, co-culture on matrigel. The following applies: growth factor added to co-culture on matrigel. Here is the method:
Protocol: For setting up the system, human umbilical vein endothelial cells, pooled from three donors, were purchased from Cambrex, and used between passages 3-6. The cells were grown in endothelial basal medium supplemented with 20% fetal bovine serum (FBS) and bulletkit-2 (Sengupta et al. Cancer Res. 63 (23):8351-59, Dec. 1, 2003). For the tumor component, we used B16/F10 melanoma cells as the model cell line, which were stably transfected to express green fluorescent protein. Plasmid expressing enhanced green fluorescent protein (pEGFP-C2, Clontech) was linearized and lipofected (Lipofectamine 2000, Invitrogen) into B16-F10 cells. The stably integrated clones of B16-F10 cells were selected by 800 μg/ml G418. The green fluorescence of the G418 resistant clones was further confirmed by Flow Cytometry and epifluorescence microscopy. The GFP-B16/F10 cells were regularly cultured in DMEM supplemented with 5% FBS. […] The coverslips were mounted with antifade, and analysed with a LSM510 Zeiss confocal microscope. […] Quantification of the area covered by the endothelial cells or GFP-BL6/F10 cells was carried out using a planimetric point-count method using a 224-intersection point square reticulum. Data were expressed as the ratio of each component to the total area covered by cells. […]

Consider `COc1cccc2c1C(=O)c1c(O)c3c(c(O)c1C2=O)C[C@@](O)(C(=O)CO)C[C@@H]3O[C@H]1C[C@H](N)[C@H](O)[C@H](C)O1` [Doxorubicin], for which the tumor cell death result is given as “selective induction of tumor cell death” in assay [1], “induced tumor cell death” in assay [2] (VEGF-treated co-culture) and “induced tumor cell death” in assay [3] (HGF/SF-treated co-culture). For the same compound, the “effect on tumor cells” value in assay [4] is “selective ablation of the tumor cells in a concentration-dependent manner”. In assay [4] (highest concentration used), the VEGF-induced endothelial network entry was “no effect on the VEGF-induced endothelial network”.

In the case of `Clc1ccc(Nc2nnc(Cc3ccncc3)c3ccccc23)cc1` [PTK787], the “HGF/SF-induced response (endothelial network)” value in assay [1] is “no effect on the HGF/SF-induced response”. In addition, in assay [4], the “VEGF-induced angiogenesis / vascular network” value is listed as “blocked”.

Take `O=C1CCC(N2C(=O)c3ccccc3C2=O)C(=O)N1` (centres unmarked) [thalidomide]: the “HGF/SF-induced response (endothelial network)” value in assay [1] is “failed to inhibit the HGF-induced effect”. The “angiogenic effects of VEGF” value in assay [2] is “inhibited the angiogenic effects of VEGF”. Further, the endothelial cell loss result in assay [3] (HGF/SF) is listed as “induced endothelial cell loss”. In addition, in assay [4], the “VEGF-induced angiogenesis / vascular network” value is “collapse of the VEGF-induced vascular network” and the “effect on tumor cells” value is on record as “without affecting the tumor cells”.

In the case of “HGF/SF: growth factor added to the co-culture”, the vascular network result in assay [5] was “significant increase in the vascular network”.

Regarding VEGF, in assay [5], the vascular network result is given as “significant increase in the vascular network”.
